Entries after “also recorded” stand apart in the source; their conditions may differ.
Assays:
rats [1] = assay: Sucrose preference testing for depression/anhedonia symptoms; assay type: in vivo, rat; details: 2% sucrose vs. plain water, chronic THC 10 days twice daily i.p., L-Theanine 10 mg/kg, FIG. 2
Procedure: (§1) Four groups of ten rats were studied. The first group of rats was given twice daily intra-peritoneal doses of THC. The dosage regime was as follows
(§2) Immediately preceding each dose of THC, each rat was dosed with 10 mg/kg L-Theanine, administered intra-peritoneally.
(§3) The second group of rats was given the same doses of THC and no L-Theanine.
(§4) The third group of rats was given twice daily doses of L-Theanine but no THC.
(§5) The fourth group of rats was given neither THC nor L-Theanine.
(§6) All groups of rats were fed, watered and otherwise housed identically. At the end of the 10 day period, the rats were subject to a serious of tests.
Rats were water-restricted for 12 hrs prior to being given a 2-bottle choice test between a solution containing 2% sucrose vs. plain water. The amounts consumed from each bottle were measured over 24 hr for 4 days. A sucrose preference index was calculated for each rat and averaged across groups by taking the percentage of the volume of sucrose intake over the total volume of fluid intake over […].

rats [2] = assay: Novel object memory test (Novel Object Recognition); assay type: in vivo, rat; details: 60 min delay, chronic THC 10 days twice daily i.p., L-Theanine 10 mg/kg, FIG. 3
Procedure: as §1, §2, §3, §4, §5, §6
The test sessions consisted of two 3-min trials. During the first trial (T1 acquisition trial), each rat was placed in the center of an arena containing two identical objects placed in the far corners 15 cm from the side wall. […] Times spent in exploration were videotaped with a video-tracking system (ANY-maze; Stoelting) and analyzed by an experimenter blind to the treatment conditions. Exploration times were recorded and used to calculate object recognition index [time spent with novel object/total time exploring both objects]

rats [3] = assay: Paired-pulse (prepulse) inhibition test for cognitive filtering deficits; assay type: in vivo, rat; details: L-Theanine 10 mg/kg; for prepulse inhibition / sensory filtering: both 30 and 100 msec between pre-pulse and test pulse, 10 days twice daily i.p. THC 2.5-10 mg/kg, relative to vehicle control rats, FIG. 1
Procedure: as §1, §2, §3, §4, §5, §6
Rats were acclimatized to the startle chambers (Med Associates) for 5 min over 3 days. On the last day of acclimation, rats were tested in an input/output (I/O) function consisting of 12 increasing startle pulses (from 65 to 120 dB, 5 dB increments) to determine the appropriate gain setting for each individual rat. The testing procedure consisted of the following phases: the acclimation phase, a habituation phase (Block 1), and PPI measurement (Block 2). During acclimation, rats were exposed to the chambers and white background noise (68 dB) for 5 min. During Block 1, 10 pulse alone trials (110 dB white noise, 20 ms duration) were delivered at 15-20 s inter-trial intervals. Block 2 consisted of […] presented 10 times in a pseudo-randomized order at 15-20 s intervals: 10 pulse-alone trials, and 10 of each of the three different prepulse-pulse trial types (72, 76, 80) with interstimulus intervals of 30 and 100 ms. Pulse-alone trials consisted of a startle stimulus-only presentation, whereas prepulse-pulse trials consisted of the presentation of a weaker non-startling prepulse (white noise, 20 ms duration) before the startling stimulus. PPI was calculated for each animal and each trial condition as PPI (%)=(1-average startle amplitude to pulse with prepulse/average startle amplitude to pulse only)×100.

[4] = system: Akt (protein kinase B) threanine308; assay: Protein expression of Akt308 in prefrontal cortex; assay type: in vivo; details: prefrontal cortex of rat brain; chronic THC, L-Theanine 10 mg/kg; FIG. 8
Procedure: FIG. 8. […] This effect is prevented by L-Theanine (10 mg/kg) co-administration.
as §1, §2, §3, §4, §5, §6

[5] = system: glycogen-synthase-kinase-3A; assay: Western Blot of GSK-3α protein expression; assay type: in vivo, rat; details: rats, chronic THC exposure, L-Theanine 10 mg/kg
Procedure: (§7) FIG. 7. […] These molecular signaling effects are prevented by co-administration with L-Theanine (10 mg/kg), as measured in a Western Blot procedure.
as §1, §2, §3, §4, §5, §6

Akt at serine 473 = assay: Protein expression of Akt at serine 473 in prefrontal cortex; assay type: in vivo; details: prefrontal cortex of rat brain; chronic THC, L-Theanine 10 mg/kg; FIG. 8
[6] = system: single dopamine neurons in the ventral tegmental area; assay: In vivo single-unit electrophysiology recordings in the VTA; set-up: species or system rat; details: rats; chronic THC exposure, L-Theanine 10 mg/kg; FIG. 4
Procedure: as §1, §2, §3, §4, §5, §6
(§8) Extracellular single-unit electrophysiological recordings were performed in vivo in adult (>PND 75) pretreated rats during adolescence. The recordings were taken from either putative glutamatergic (GLUT) PFC neurons or dopaminergic (DA) VTA neurons. Rats were anesthetized with urethane (1.4 g/kg, i.p., Sigma-Aldrich) and placed in a stereotaxic frame with body temperature maintained at 37° C. […] Extracellular signals were amplified (×5000) using a MultiClamp 700B amplifier (Molecular Devices), digitized at 25 kHz and recorded on the computer using a Digidata 1440 A and pClamp software (Molecular Devices). […]

[7] = system: single neurons of the prefrontal cortex (PFC); assay: In vivo single-unit electrophysiology recordings in the PFC (burst testing); set-up: species or system rat; details: rats; chronic THC exposure, L-Theanine 10 mg/kg; FIG. 5
Procedure: as §1, §2, §3, §4, §5, §6
as §8, with “neurons.” for “neurons. Rats were anesthetized with urethane (1.4 g/kg, i.p., Sigma-Aldrich) and placed in a stereotaxic frame with body temperature maintained at 37° C.”
Putative mPFC pyramidal cells were identified based on established criteria85: (1) firing frequency <10 Hz, (2) waveform shape, and (3) action potential duration >2.5 ms. […] After an individual putative pyramidal neuron was isolated, its spontaneous activity was recorded for 5 min. […]

[8] = system: glycogen-synthase-kinase-3B; assay: Western Blot of GSK-3β protein expression; assay type: in vivo, rat; details: rats, chronic THC exposure, L-Theanine 10 mg/kg
Procedure: as §7, §1, §2, §3, §4, §5, §6

[9] = system: gamma-band activity in the rat prefrontal cortex; assay: Local field potential recordings in prefrontal cortex (normalized power testing); assay type: in vivo; details: chronic THC exposure, L-Theanine 10 mg/kg, 0-100 Hz range
Procedure: as §1, §2, §3, §4, §5, §6, §8

Row | Compound | sucrose preference (anhedonic, depression-like effects) (rats [1]) | object recognition (object memory) (rats [2]) | prepulse inhibition / sensory filtering (rats [3]) | protein expression levels of Akt308 [4] | protein expression levels of GSK-3α ([5]; FIG. 7) | protein expression levels of GSK-3α ([5]; FIG. 7, listed as THC-alone) | effect on Akt at serine 473 (Akt at serine 473) | activity rates of single dopamine neurons in the ventral tegmental area [6] | bursting pattern activity of single neurons of the prefrontal cortex [7] | protein expression levels of GSK-3β ([8]; FIG. 7) | protein expression levels of GSK-3β ([8]; FIG. 7, listed as THC-alone) | sensorimotor filtering (paired-pulse-inhibition) (rats [3]; 30 msec stimulus intervals, 72 and 84 decibel stimulus intensities, FIG. 1A) | sensorimotor filtering (paired-pulse-inhibition) (rats [3]; 100 msec stimulus intervals, 72, 76 and 80 decibel stimulus intensities, FIG. 1B) | gamma-band activity (local field potentials, normalized power) ([9]; FIG. 6) | gamma-band activity (local field potentials, normalized power) ([9]; FIG. 6, listed as THC only)
1 | CCNC(=O)CC[C@H](N)C(=O)O [L-Theanine] | no apparent effects on sucrose preference | no apparent effects on object recognition | no apparent effects on sensory filtering |  |  |  |  |  |  |  |  |  |  |  | 
2 | CCCCCc1cc(O)c2c(c1)OC(C)(C)[C@@H]1CCC(C)=C[C@@H]21 [THC, Δ-9-tetrahydrocannabinol] | anhedonic (depression-like) effects; also recorded: strong sucrose preference reduction | significant object memory impairment; also recorded: strong reductions in object recognition | strong deficits in the prepulse inhibition | significant downregulation in protein expression levels of Akt308 | significant loss in the protein expression levels | significant decrease | no effect | hyperactive activity rates | hyperactive ‘bursting’ pattern activity state; also recorded: neuronal hyperactivity | significant loss in the protein expression levels | significant decrease | disruption of sensorimotor filtering | disruption of sensorimotor filtering | significant decrease in gamma-band activity states | generally decreased activity

— patent US20250049751A1, “L-THEANINE AND TETRAHYDROCANNABINOL FORMULATION” (priority 2018, published 2025)
